Tests used:
Experiment in all cases: relative viability (nuclei count vs DMSO), 5 days (fraction); higher = more cells survive
LCLC-103H = test system: LCLC-103H
In short: (§1)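 The day after seeding in 1536-well plates, lung cancer cell lines were treated by pin tool with a single drug, or with a fixed anchor-drug dose together with five library-drug doses (not always all listed) in √10 steps. After 5 days, a combined fix-and-stain solution (final 0.05% Triton X-100, 1% formaldehyde, 1 ug/ml Hoechst) was added. Nuclei counted on 4× images gave relative viability as treated counts over vehicle counts, reported as the median of duplicate plates.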

LXF-289 = test system: LXF-289
In short: as §1

NCI-H1355 = test system: NCI-H1355
In short: as §1

NCI-H1563 = test system: NCI-H1563
In short: as §1

NCI-H1651 = test system: NCI-H1651
In short: as §1

NCI-H1755 = test system: NCI-H1755
In short: as §1

NCI-H1792 = test system: NCI-H1792
In short: as §1

NCI-H1915 = test system: NCI-H1915
In short: as §1

NCI-H2347 = test system: NCI-H2347
In short: as §1

NCI-H3122 = test system: NCI-H3122
In short: as §1

NCI-H322M = test system: NCI-H322M
In short: as §1

NCI-H441 = test system: NCI-H441
In short: as §1

NCI-H460 = test system: NCI-H460
In short: as §1

NCI-H520 = test system: NCI-H520
In short: as §1

NCI-H596 = test system: NCI-H596
In short: as §1

NCI-H661 = test system: NCI-H661
In short: as §1

NCI-H727 = test system: NCI-H727
In short: as §1

PC-14 = test system: PC-14
In short: as §1

RERF-LC-KJ = test system: RERF-LC-KJ
In short: as §1

SK-MES-1 = test system: SK-MES-1
In short: as §1

In the case of `Nc1ccn([C@@H]2O[C@H](CO)[C@@H](O)[C@@H]2O)c(=O)n1` [Cytarabine] + Cc1nc(NC(=O)N2CCC[C@H]2C(N)=O)sc1-c1ccnc(C(C)(C)C(F)(F)F)c1 [Alpelisib] (partner 2 µM), the relative viability (LCLC-103H; first compound 0.005 µM) is reported as 0.988, the relative viability (LCLC-103H; first compound 0.01581 µM) is reported as 0.906 and the relative viability (LCLC-103H; first compound 0.05 µM) is reported as 1.02. It also gave a relative viability (LCLC-103H; first compound 0.1581 µM) of 0.967, a relative viability (LCLC-103H; first compound 0.5 µM) of 0.809 and a relative viability (LXF-289; first compound 0.005 µM) of 1.02. The relative viability (LXF-289; first compound 0.01581 µM) was 1.05, the relative viability (LXF-289; first compound 0.05 µM) was 0.764 and the relative viability (LXF-289; first compound 0.1581 µM) was 0.356. The relative viability (LXF-289; first compound 0.5 µM) was 0.268, the relative viability (NCI-H1355; first compound 0.005 µM) was 0.825 and the relative viability (NCI-H1355; first compound 0.01581 µM) was 0.758. It also gave a relative viability (NCI-H1355; first compound 0.05 µM) of 0.756, a relative viability (NCI-H1355; first compound 0.1581 µM) of 0.363 and a relative viability (NCI-H1355; first compound 0.5 µM) of 0.264. It also gave a relative viability (NCI-H1563; first compound 0.005 µM) of 0.938, a relative viability (NCI-H1563; first compound 0.01581 µM) of 1.02 and a relative viability (NCI-H1563; first compound 0.05 µM) of 0.845. It also gave a relative viability (NCI-H1563; first compound 0.1581 µM) of 0.888, a relative viability (NCI-H1563; first compound 0.5 µM) of 0.663 and a relative viability (NCI-H1651; first compound 0.005 µM) of 0.817. It also gave a relative viability (NCI-H1651; first compound 0.01581 µM) of 1.01, a relative viability (NCI-H1651; first compound 0.05 µM) of 1.17 and a relative viability (NCI-H1651; first compound 0.1581 µM) of 0.401. It also gave a relative viability (NCI-H1651; first compound 0.5 µM) of 0.261, a relative viability (NCI-H1755; first compound 0.005 µM) of 0.925 and a relative viability (NCI-H1755; first compound 0.01581 µM) of 0.878. It also gave a relative viability (NCI-H1755; first compound 0.05 µM) of 0.75, a relative viability (NCI-H1755; first compound 0.1581 µM) of 0.244 and a relative viability (NCI-H1755; first compound 0.5 µM) of 0.273. It also gave a relative viability (NCI-H1792; first compound 0.005 µM) of 0.553, a relative viability (NCI-H1792; first compound 0.01581 µM) of 0.644 and a relative viability (NCI-H1792; first compound 0.05 µM) of 0.659. The relative viability (NCI-H1792; first compound 0.1581 µM) was 0.387, the relative viability (NCI-H1792; first compound 0.5 µM) was 0.343 and the relative viability (NCI-H1915; first compound 0.005 µM) was 1.04. It also gave a relative viability (NCI-H1915; first compound 0.01581 µM) of 0.915, a relative viability (NCI-H1915; first compound 0.05 µM) of 0.851 and a relative viability (NCI-H1915; first compound 0.1581 µM) of 0.493. The relative viability (NCI-H1915; first compound 0.5 µM) was 0.394, the relative viability (NCI-H2347; first compound 0.005 µM) was 1.22 and the relative viability (NCI-H2347; first compound 0.01581 µM) was 0.964. For the same compound, the relative viability (NCI-H2347; first compound 0.05 µM) was 0.868, the relative viability (NCI-H2347; first compound 0.1581 µM) was 0.691 and the relative viability (NCI-H2347; first compound 0.5 µM) was 0.663. For the same compound, the relative viability (NCI-H3122; first compound 0.005 µM) was 0.673, the relative viability (NCI-H3122; first compound 0.01581 µM) was 0.699 and the relative viability (NCI-H3122; first compound 0.05 µM) was 0.772. The relative viability (NCI-H3122; first compound 0.1581 µM) was 0.464, the relative viability (NCI-H3122; first compound 0.5 µM) was 0.424 and the relative viability (NCI-H322M; first compound 0.005 µM) was 0.68. For the same compound, the relative viability (NCI-H322M; first compound 0.01581 µM) was 0.607, the relative viability (NCI-H322M; first compound 0.05 µM) was 0.529 and the relative viability (NCI-H322M; first compound 0.1581 µM) was 0.283. The relative viability (NCI-H322M; first compound 0.5 µM) was 0.291, the relative viability (NCI-H441; first compound 0.005 µM) was 0.542 and the relative viability (NCI-H441; first compound 0.01581 µM) was 0.49. The relative viability (NCI-H441; first compound 0.05 µM) was 0.391, the relative viability (NCI-H441; first compound 0.5 µM) was 0.165 and the relative viability (NCI-H460; first compound 0.005 µM) was 0.31. The relative viability (NCI-H460; first compound 0.01581 µM) was 0.252, the relative viability (NCI-H460; first compound 0.05 µM) was 0.121 and the relative viability (NCI-H460; first compound 0.1581 µM) was 0.0355. The relative viability (NCI-H460; first compound 0.5 µM) was 0.0251, the relative viability (NCI-H520; first compound 0.005 µM) was 0.697 and the relative viability (NCI-H520; first compound 0.01581 µM) was 0.754. For the same compound, the relative viability (NCI-H520; first compound 0.05 µM) was 0.858, the relative viability (NCI-H520; first compound 0.1581 µM) was 0.688 and the relative viability (NCI-H520; first compound 0.5 µM) was 0.447. It also gave a relative viability (NCI-H596; first compound 0.005 µM) of 0.5, a relative viability (NCI-H596; first compound 0.01581 µM) of 0.567 and a relative viability (NCI-H596; first compound 0.05 µM) of 0.433. For the same compound, the relative viability (NCI-H596; first compound 0.1581 µM) was 0.418, the relative viability (NCI-H596; first compound 0.5 µM) was 0.315 and the relative viability (NCI-H661; first compound 0.005 µM) was 0.811. The relative viability (NCI-H661; first compound 0.01581 µM) was 0.733, the relative viability (NCI-H661; first compound 0.05 µM) was 0.405 and the relative viability (NCI-H661; first compound 0.1581 µM) was 0.24. It also gave a relative viability (NCI-H661; first compound 0.5 µM) of 0.214, a relative viability (NCI-H727; first compound 0.005 µM) of 0.461 and a relative viability (NCI-H727; first compound 0.01581 µM) of 0.505. For the same compound, the relative viability (NCI-H727; first compound 0.05 µM) was 0.388, the relative viability (NCI-H727; first compound 0.1581 µM) was 0.258 and the relative viability (NCI-H727; first compound 0.5 µM) was 0.159. For the same compound, the relative viability (PC-14; first compound 0.005 µM) was 0.838, the relative viability (PC-14; first compound 0.01581 µM) was 1.13 and the relative viability (PC-14; first compound 0.05 µM) was 1.05. For the same compound, the relative viability (PC-14; first compound 0.1581 µM) was 0.512, the relative viability (PC-14; first compound 0.5 µM) was 0.357 and the relative viability (RERF-LC-KJ; first compound 0.005 µM) was 0.742. For the same compound, the relative viability (RERF-LC-KJ; first compound 0.01581 µM) was 0.657, the relative viability (RERF-LC-KJ; first compound 0.05 µM) was 0.864 and the relative viability (RERF-LC-KJ; first compound 0.1581 µM) was 0.499. The relative viability (RERF-LC-KJ; first compound 0.5 µM) was 0.36, the relative viability (SK-MES-1; first compound 0.005 µM) was 0.702 and the relative viability (SK-MES-1; first compound 0.01581 µM) was 0.688. The relative viability (SK-MES-1; first compound 0.05 µM) was 0.393, the relative viability (SK-MES-1; first compound 0.1581 µM) was 0.243 and the relative viability (SK-MES-1; first compound 0.5 µM) was 0.21.

Source: the supplement of paper PMC10307832
